# Measurements taken from patent US5470950A, “Biologically active amphiphilic peptide compositions and uses therefor” (Magainin Pharmaceuticals Inc., priority 1994, dated 1995).
# Ends that are not written are not given here.
# Columns and labels:
# Test in all cases: Antibacterial MIC assay (NCCLS M7-T2 microtiter broth dilution)
# Format in all cases: cell-based
# E.coli ATCC strain 25922 = settings: E. coli ATCC 25922; Mueller Hinton broth, 16-20 hours at 37° C.; lowest concentration giving a clear well
# From the text: (§1) Table I, which follows, indicates the Minimal Inhibitory Concentration (MIC) in μg/ml of Peptides (SEQ ID NO:1) through (SEQ ID NO:3), (SEQ ID NO:5), (SEQ ID NO:6), (SEQ ID NO:9) through (SEQ ID NO:11), and (SEQ ID NO:17) against S.aureus strain ATCC 25923, P. aeruginosa strain ATCC 27853, and E.coli ATCC strain 25922. The procedure for the antibacterial assay is based upon the guidelines of the National Committee for Clinical Laboratory Standards, Document M7-T2, Volume 8, No. 8, 1988. Stock solutions of peptides (SEQ ID NO: 1) through (SEQ ID NO:3), (SEQ ID NO:5), (SEQ ID NO:S), (SEQ ID NO:9) through (SEQ ID NO:12), and […] in accordance with the present invention are prepared at a concentration of 512 μg/ml in sterile deionized distilled water and stored at -70° C. Each peptide is a C-terminal amide and may or may not be acetylated at the N-Terminus. An acetyl group at the N-terminus is indicated by an X. The stock peptide solution is diluted in serial dilutions (1:2) down the wells of a microtiter plate so that the final concentrations of peptides in the wells are 0.25, 0.50, i, 2,4, 8, 16, 32, 64, 128, and 256 μg/ml. 1-5×10^5 CFUs/ml of either S. aureus ATCC 25923, E. coli ATCC 25922, or P. aeruginosa ATCC 27853 were added to the wells in full strength Mueller Hinton broth (BBL 11443) from a mid-log culture. The inoculum is standardized spectrophotometrically at 600 nm and is verified by colony counts. The plates are incubated for 16-20 hours at 37° C., and the minimal inhibitory concentration (MIC) for each peptide is determined. Minimal inhibitory concentration is defined as the lowest concentration of peptide which produces a clear well in the microtiter plate. The minimal inhibitory concentration of each of (SEQ ID NO:1) through (SEQ ID NO:3), (SEQ ID NO:5), (SEQ ID NO:6), (SEQ ID NO:9) through (SEQ ID NO:11), and (SEQ ID NO:17) is given in Table I below.
# [1] = system: P. aeruginosa strain ATCC 27853; settings: P. aeruginosa ATCC 27853; Mueller Hinton broth, 16-20 hours at 37° C.; lowest concentration giving a clear well
# From the text: as §1
# [2] = system: S. aureus strain ATCC 25923; settings: S. aureus ATCC 25923; Mueller Hinton broth, 16-20 hours at 37° C.; lowest concentration giving a clear well
# From the text: as §1
Substance,Minimal Inhibitory Concentration E. coli (E.coli ATCC strain 25922),Minimal Inhibitory Concentration P. aeruginosa [1],Minimal Inhibitory Concentration S. aureus [2]
Ac-LKKLKKLLKLL-NH2 [X-(SEQ ID NO: 1)-NH2],4 µg/mL,"4,8 μg/ml",16 µg/mL
LLKKLKKLLKLL-NH2 [(SEQ ID NO.:2)-NH2],"8,16 μg/ml",16 µg/mL,16 µg/mL
Ac-LKLLKKLLKKPKKLLKKL-NH2 [X-(SEQ ID NO: 10)-NH2],64 µg/mL,16 µg/mL,"16,32 μg/ml"
KLLKKLKKLLKLL-NH2 [(SEQ ID NO.:3)-NH2],,16 µg/mL,64 µg/mL
LKKLKKLLKLL-NH2 [(SEQ ID NO.: 1)-NH2],"8,16 μg/ml","8,16 μg/ml","64,128 μg/ml"
Ac-LKKLLKKLKKL-NH2 [X-(SEQ ID NO: 17)-NH2],"32,64 μg/ml","8,16 μg/ml",256 µg/mL
Ac-LKLLKKLLKKNKKLLKKL-NH2 [X-(SEQ ID NO: 9)-NH2],64 µg/mL,8 µg/mL,16 µg/mL
LKKLLKKLKKL-NH2 [(SEQ ID NO: 17)-NH2],"64,128 μg/ml","32,64 μg/ml",> 256 µg/mL
Ac-KKLLKKLKKLLKKLRR-NH2 [X-(SEQ ID NO: 5)-NH2],32 µg/mL,8 µg/mL,4 µg/mL
Ac-LLKKLKKLLKLL-NH2 [X-(SEQ ID NO: 2)-NH2],"8,16 μg/ml",16 µg/mL,16 µg/mL
Ac-KLLKKLKKLLKLL-NH2 [X-(SEQ ID NO: 3)-NH2],"8,16 μg/ml",16 µg/mL,64 µg/mL
